Reference: US20230248025A1 (priority 2020, published 2023)
Several values for one entry are separate records, joined by “and”; a condition that tells them apart may be missing. Equal values may be shown once.

Tests used:
toxins of C. botulinum = system: toxins of C. botulinum; design: species or system Clostridium botulinum; conditions: in vivo
[1] = pH of emulsified cooked sausage modalities before and after cooking; type: physicochemical
[2] = Color and stability study in emulsified cooked sausage (visual, L*a*b*, hue angle, delta a*, delta E); type: physicochemical
lactic acid bacteria = assay: Endogenous lactic acid bacteria in cooked emulsified sausage model; type: cell-based
total flora = assay: Total plate count in cooked emulsified sausage during storage; type: cell-based
lactic flora = assay: Lactic flora in cooked emulsified sausage during storage; type: cell-based
Listeria monocytogenes [3] = conditions: emulsified sausage; 4° C. then 8° C.
[4] = system: Clostridium botulinum (group II type B); type: cell-based
Listeria monocytogenes [5] = assay: Challenge test Listeria in fresh ground sausage; type: cell-based
[6] = cooked emulsified sausage, d0 to d21
[7] = emulsified sausage, modalities 3-6 also contain 3000 ppm Natstabil M2 blend1

Compound: O=NO [Nitrite]
- Detection of toxins of C. botulinum, positive samples of 5, Day 21 (toxins of C. botulinum): 0/5
- Detection of toxins of C. botulinum, positive samples of 5, Day 40 (toxins of C. botulinum): 0/5
- production of C. botulinum toxin (toxins of C. botulinum): inhibit the production of toxin
- pH after cooking d0 [1]: 6.48
- pH before cooking [1]: 6.31
- pH d7 [1]: 6.43
- pH d14 [1]: 6.47
- pH d21 [1]: 6.47
- sausage color after 21 days of storage (visual) ([2]; 10 days at 4° C. and 11 days at 8° C.): slightly degraded (pale orange shade)
- a* value over time [2, 6]: a* values more important than control, stable over time
- b* value over time [2, 6]: slight increase of b* value at d21
- meat color before cooking (visual) [2, 7]: grey
- sausage color after cooking (visual) [2, 7]: light pink
- Lactic acid bacteria Day 40 (lactic acid bacteria; 14 days at 4° C., 2 h at 20° C. and 26 days at 8° C.): <5 CFU/g
- Lactic acid bacteria D0 after cooking (lactic acid bacteria; inoculated sausage model): <5 CFU/g
- total flora growth (total flora): normal growth
- lactic flora growth (lactic flora): normal growth
- Listeria growth during shelf-life (Listeria monocytogenes [3]): cannot limit the growth
- C. botulinum (spores + vegetative cells) D0 before cooking [4]: 250 CFU/g and 450 CFU/g and 400 CFU/g
- C. botulinum (spores + vegetative cells) Day 30 [4]: <5 CFU/g and 5 CFU/g
- C. botulinum (spores + vegetative cells) Day 40 [4]: 5 CFU/g and <5 CFU/g
- C. botulinum (spores only) D0 after cooking [4]: <5 CFU/g and 5 CFU/g
- C. botulinum (spores only) Day 21 [4]: <5 CFU/g
- C. botulinum (spores only) Day 30 [4]: <5 CFU/g
- C. botulinum (spores only) Day 40 [4]: <5 CFU/g
- Δ log cfu/g versus untreated control (Listeria monocytogenes [5]; d4): < −0.5 log cfu/g
- Δ log cfu/g versus untreated control (Listeria monocytogenes [5]; d8): < −0.5 log cfu/g

Compound: lactate
- total flora growth (total flora): normal growth
- lactic flora growth (lactic flora): normal growth
- Δ log cfu/g versus untreated control (Listeria monocytogenes [5]; d8): −0.9 log cfu/g
